Measurements reported in patent US20240158392A1 (Janssen Biotech, Inc., priority 2021, published 2024).

What follows are molecules tested against SIK2 (Homo sapiens, UniProt Q9H0K1) (assay: SIK2 Enzymatic Assay High Version 2 (High ATP)). Conditions: not given.
Format: biochemical
Procedure, shortened: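 At room temperature, enzyme (6 nM, 2× final) was preincubated with compound for 30 min, then 6 mM ATP and 400 μM HDAC5tide (both 2× final) were added for 2 h. ADP formed was measured by ADP-Glo Max (2 h reagent, 1 h detection) using luminescence.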

Chain of SIK2 (Q9H0K1 whole entry, species assumed): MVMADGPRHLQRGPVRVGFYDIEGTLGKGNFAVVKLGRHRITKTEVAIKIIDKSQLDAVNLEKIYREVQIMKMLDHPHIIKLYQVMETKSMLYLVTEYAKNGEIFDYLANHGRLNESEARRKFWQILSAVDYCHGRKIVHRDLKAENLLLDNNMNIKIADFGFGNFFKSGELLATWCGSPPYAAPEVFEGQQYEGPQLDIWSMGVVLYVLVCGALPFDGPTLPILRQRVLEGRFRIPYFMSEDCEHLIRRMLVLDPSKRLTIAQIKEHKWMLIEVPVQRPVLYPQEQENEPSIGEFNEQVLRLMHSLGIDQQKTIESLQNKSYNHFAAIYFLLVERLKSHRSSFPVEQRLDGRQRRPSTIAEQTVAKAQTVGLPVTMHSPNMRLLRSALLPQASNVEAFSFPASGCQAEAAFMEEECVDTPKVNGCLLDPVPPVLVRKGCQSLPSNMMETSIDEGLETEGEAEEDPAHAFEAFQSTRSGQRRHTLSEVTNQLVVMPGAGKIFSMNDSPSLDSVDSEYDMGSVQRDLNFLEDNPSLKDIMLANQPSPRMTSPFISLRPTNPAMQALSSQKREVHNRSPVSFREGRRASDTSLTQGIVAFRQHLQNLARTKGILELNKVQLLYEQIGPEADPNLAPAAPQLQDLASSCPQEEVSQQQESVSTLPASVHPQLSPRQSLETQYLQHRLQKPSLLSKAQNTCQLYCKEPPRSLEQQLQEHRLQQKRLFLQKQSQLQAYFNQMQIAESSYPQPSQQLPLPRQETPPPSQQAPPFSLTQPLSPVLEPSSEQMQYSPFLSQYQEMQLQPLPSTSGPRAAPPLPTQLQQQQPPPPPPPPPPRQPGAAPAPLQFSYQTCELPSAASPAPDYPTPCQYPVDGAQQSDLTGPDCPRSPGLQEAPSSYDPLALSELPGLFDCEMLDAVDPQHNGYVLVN

Structure (SMILES)	IC50 [µM]
CNC(=O)c1ccnc(Nc2cc3cc(-c4cc(C)ncc4O[C@H]4C[C@H]5COC[C@@H](C4)N5C(=O)C4CC4)ccn3n2)c1 [Example 634, 2-((5-(5-(((1R,5S,7s)-9-(cyclopropanecarbonyl)-3-oxa-9-azabicyclo[3.3.1]nonan-7-yl)oxy)-2-methylpyridin-4-yl)pyrazolo[1,5-a]pyridin-2-yl)amino)-N-methylisonicotinamide]	0.363
CNC(=O)c1ccnc(Nc2cc3cc(-c4cc(C)ncc4O[C@H]4C[C@H]5COC[C@@H](C4)N5S(=O)(=O)C4CC4)ccn3n2)c1 [Example 635, 2-((5-(5-(((1R,5S,7s)-9-(cyclopropylsulfonyl)-3-oxa-9-azabicyclo[3.3.1]nonan-7-yl)oxy)-2-methylpyridin-4-yl)pyrazolo[1,5-a]pyridin-2-yl)amino)-N-methylisonicotinamide]	0.00197
CC(=O)N1[C@@H]2COC[C@H]1C[C@@H](Oc1cnc(C)cc1-c1ccn3nc(Nc4ccc(=O)n(C)n4)cc3c1)C2 [Example 637, 6-((5-(5-(((1R,5S,7s)-9-acetyl-3-oxa-9-azabicyclo[3.3.1]nonan-7-yl)oxy)-2-methylpyridin-4-yl)pyrazolo[1,5-a]pyridin-2-yl)amino)-2-methylpyridazin-3(2H)-one]	0.00642

Same assay, conditions: enzyme 6 nM, 6 mM ATP and 400 μM HDAC5tide (each 2× final concentration); 30 minutes pre-incubation, 2 hours; ADP-Glo Max luminescence; read-out: SIK2 high ATP IC50 (μM) (Test Example 2)

Structure (SMILES)	IC50 [µM]
Cc1cc(-c2ccn3nc(Nc4cc(C(=O)NC5CC5)cc(C)n4)cc3c2)c(OCC(C)(C)O)cn1 [Example 636, N-cyclopropyl-2-[[5-[5-(2-hydroxy-2-methyl-propoxy)-2-methyl-4-pyridyl]pyrazolo[1,5-a]pyridin-2-yl]amino]-6-methyl-pyridine-4-carboxamide]	0.0135
Cc1cc(Nc2cc3cc(-c4cc(C)ncc4OCC(C)(C)O)ccn3n2)nc(C(=O)NC2CC2)c1 [Example 638, N-cyclopropyl-6-[[5-[5-(2-hydroxy-2-methyl-propoxy)-2-methyl-4-pyridyl]pyrazolo[1,5-a]pyridin-2-yl]amino]-4-methyl-pyridine-2-carboxamide]	0.149
Cc1cc(-c2ccn3nc(Nc4ccc(C(=O)NC5CC5)cn4)cc3c2)c(OCC(C)(C)O)cn1 [Example 639, N-cyclopropyl-6-[[5-[5-(2-hydroxy-2-methyl-propoxy)-2-methyl-4-pyridyl]pyrazolo[1,5-a]pyridin-2-yl]amino]pyridine-3-carboxamide]	0.0887
Cc1cc(-c2ccn3nc(Nc4cc(C)nc(C(=O)NC5CC5)n4)cc3c2)c(OCC(C)(C)O)cn1 [Example 640, N-cyclopropyl-4-[[5-[5-(2-hydroxy-2-methyl-propoxy)-2-methyl-4-pyridyl]pyrazolo[1,5-a]pyridin-2-yl]amino]-6-methyl-pyrimidine-2-carboxamide]	0.0295
Cc1ncc(Nc2cc3cc(-c4cc(OC(F)F)ncc4OCC(C)(C)C#N)ccn3n2)cn1 [Example 641, 3-[[6-(difluoromethoxy)-4-[2-[(2-methylpyrimidin-5-yl)amino]pyrazolo[1,5-a]pyridin-5-yl]-3-pyridyl]oxy]-2,2-dimethyl-propanenitrile]	0.111
COC(=O)c1ccc(Nc2cc3cc(-c4cc(C)ncc4OCC(C)(C)O)ccn3n2)cc1OC [Example 642, methyl 4-[[5-[5-(2-hydroxy-2-methyl-propoxy)-2-methyl-4-pyridyl]pyrazolo[1,5-a]pyridin-2-yl]amino]-2-methoxy-benzoate]	0.00171
COc1cc(Nc2cc3cc(-c4cc(C)ncc4OCC(C)(C)O)ccn3n2)ccc1C(=O)NC1CC1 [Example 643, N-cyclopropyl-4-[[5-[5-(2-hydroxy-2-methyl-propoxy)-2-methyl-4-pyridyl]pyrazolo[1,5-a]pyridin-2-yl]amino]-2-methoxy-benzamide]	0.157
Cc1cc(-c2ccn3nc(Nc4cc(C)nc(C(=O)NCC(F)(F)F)n4)cc3c2)c(OCC(C)(C)O)cn1 [Example 644, 4-[[5-[5-(2-hydroxy-2-methyl-propoxy)-2-methyl-4-pyridyl]pyrazolo[1,5-a]pyridin-2-yl]amino]-6-methyl-N-(2,2,2-trifluoroethyl)pyrimidine-2-carboxamide]	0.0734
COc1cc(Nc2cc3cc(-c4cc(C)ncc4O[C@H]4CC[C@H](O)CC4)ccn3n2)cc(OC)c1 [Example 645, (1r,4r)-4-((4-(2-((3,5-dimethoxyphenyl)amino)pyrazolo[1,5-a]pyridin-5-yl)-6-methylpyridin-3-yl)oxy)cyclohexan-1-ol]	0.325
COc1cc(Nc2cc3cc(-c4cc(C)ncc4OCC(C)(C)O)ccn3n2)cc(OC)c1 [Example 646, 1-[[4-[2-(3,5-dimethoxyanilino)pyrazolo[1,5-a]pyridin-5-yl]-6-methyl-3-pyridyl]oxy]-2-methyl-propan-2-ol]	0.0313
Cc1cc(-c2ccn3nc(Nc4cc(C)nc(C(=O)NCC(C)(C)O)n4)cc3c2)c(OCC(C)(C)O)cn1 [Example 647, 4-[[5-[5-(2-hydroxy-2-methyl-propoxy)-2-methyl-4-pyridyl]pyrazolo[1,5-a]pyridin-2-yl]amino]-N-(2-hydroxy-2-methyl-propyl)-6-methyl-pyrimidine-2-carboxamide]	0.117
COc1cc(Nc2cc3cc(-c4cc(C)ncc4OCC(C)(C)O)ccn3n2)cc(OC(F)F)c1C(=O)NC1CC1 [Example 648, N-cyclopropyl-2-(difluoromethoxy)-4-[[5-[5-(2-hydroxy-2-methyl-propoxy)-2-methyl-4-pyridyl]pyrazolo[1,5-a]pyridin-2-yl]amino]-6-methoxy-benzamide]	0.0887
COc1cc(Nc2cc3cc(-c4cc(C)ncc4O[C@H]4CC[C@H](O)CC4)ccn3n2)cc(F)c1C(=O)NC1CC1 [Example 649]	0.166
Cc1cc(-c2ccn3nc(Nc4cc(C(F)(F)F)c(C(=O)NC(C)C)cn4)cc3c2)c(OCC(C)(C)O)cn1 [Example 650, 6-[[5-[5-(2-hydroxy-2-methyl-propoxy)-2-methyl-4-pyridyl]pyrazolo[1,5-a]pyridin-2-yl]amino]-N-isopropyl-4-(trifluoromethyl)pyridine-3-carboxamide]	0.0868
Cc1cc(-c2ccn3nc(Nc4cc(C(F)(F)F)c(C(=O)NCC(F)(F)F)cn4)cc3c2)c(OCC(C)(C)O)cn1 [Example 651, 6-[[5-[5-(2-hydroxy-2-methyl-propoxy)-2-methyl-4-pyridyl]pyrazolo[1,5-a]pyridin-2-yl]amino]-N-(2,2,2-trifluoroethyl)-4-(trifluoromethyl)pyridine-3-carboxamide]	0.194
Cc1cc(-c2ccn3nc(Nc4nccc(C)c4F)cc3c2)c(OCC(C)(C)O)cn1 [Example 652, 1-[[4-[2-[(3-fluoro-4-methyl-2-pyridyl)amino]pyrazolo[1,5-a]pyridin-5-yl]-6-methyl-3-pyridyl]oxy]-2-methyl-propan-2-ol]	0.557
Cc1cc(-c2cn3cc(NC(=O)C4CC4)nc3cn2)c(O[C@H]2CC[C@H](O)CC2)cn1 [Example 653, N-[6-[5-(4-hydroxycyclohexoxy)-2-methyl-4-pyridyl]imidazo[1,2-a]pyrazin-2-yl]cyclopropanecarboxamide]	0.136
Cc1cc(-c2cn3cc(NC(=O)C4CC4)nc3cn2)c(OC2CN(C)C2)cn1 [Example 654, N-[6-[2-methyl-5-(1-methylazetidin-3-yl)oxy-4-pyridyl]imidazo[1,2-a]pyrazin-2-yl]cyclopropanecarboxamide]	0.0743
Cc1cc(-c2cn3cc(NC(=O)C4CC4)nc3cn2)c(O[C@H]2CC[C@@H](O)CC2)cn1 [Example 655, N-[6-[5-(4-hydroxycyclohexoxy)-2-methyl-4-pyridyl]imidazo[1,2-a]pyrazin-2-yl]cyclopropanecarboxamide]	0.0943
Cc1cc(-c2cn3cc(Nc4cncc(C)n4)nc3cn2)c(O[C@H]2CC[C@H](O)CC2)cn1 [Example 657, 4-[[6-methyl-4-[2-[(6-methylpyrazin-2-yl)amino]imidazo[1,2-a]pyrazin-6-yl]-3-pyridyl]oxy]cyclohexanol]	0.984
Cc1cc(Nc2cc3cc(-c4cc(OCC(F)(F)F)ncc4OCC(C)(C)C#N)ccn3n2)nc(C)n1 [Example 659, 3-[[4-[2-[(2,6-dimethylpyrimidin-4-yl)amino]pyrazolo[1,5-a]pyridin-5-yl]-6-(2,2,2-trifluoroethoxy)-3-pyridyl]oxy]-2,2-dimethyl-propanenitrile]	0.157
Cc1cc(Nc2cc3cc(-c4cc(OCC(F)F)ncc4OCC(C)(C)C#N)ccn3n2)nc(C)n1 [Example 660, 3-[[6-(2,2-difluoroethoxy)-4-[2-[(2,6-dimethylpyrimidin-4-yl)amino]pyrazolo[1,5-a]pyridin-5-yl]-3-pyridyl]oxy]-2,2-dimethyl-propanenitrile]	0.184
Cc1cc(Nc2cc3cc(-c4cc(OCC(F)(F)F)ncc4OCC(C)(C)O)ccn3n2)nc(C)n1 [Example 661, 1-[[4-[2-[(2,6-dimethylpyrimidin-4-yl)amino]pyrazolo[1,5-a]pyridin-5-yl]-6-(2,2,2-trifluoroethoxy)-3-pyridyl]oxy]-2-methyl-propan-2-ol]	0.0749
Cc1cc(Nc2cc3cc(-c4cc(OCC(F)(F)F)ncc4O[C@H]4CC[C@H](O)CC4)ccn3n2)nc(C)n1 [Example 664, 4-[[4-[2-[(2,6-dimethylpyrimidin-4-yl)amino]pyrazolo[1,5-a]pyridin-5-yl]-6-(2,2,2-trifluoroethoxy)-3-pyridyl]oxy]cyclohexanol]	0.0953
CC(C)(C#N)COc1cnc(OC(F)F)cc1-c1ccn2nc(NC(=O)C3CC3)cc2c1 [Example 665, N-[5-[5-(2-cyano-2-methyl-propoxy)-2-(difluoromethoxy)-4-pyridyl]pyrazolo[1,5-a]pyridin-2-yl]cyclopropanecarboxamide]	0.0244
CC(C)(C#N)COc1cnc(Cl)cc1-c1ccn2nc(NC(=O)C3CC3)cc2c1 [Example 666, N-[5-[2-chloro-5-(2-cyano-2-methyl-propoxy)-4-pyridyl]pyrazolo[1,5-a]pyridin-2-yl]cyclopropanecarboxamide]	0.0555
